Measurements reported in patent US12077503B2, “Substituted cyclic amides and their use as herbicides” (FMC CORPORATION, priority 2015, dated 2024).

How the values were obtained:
Format in all cases: in vivo
[1] = test system: barnyardgrass (Echinochloa crus-galli); assay: Test G Pre-Emergence Protocol; conditions: evaluated after 13 days
Procedure: (§1) Seeds of corn (Zea mays), giant foxtail (Setaria faberi), barnyardgrass (Echinochloa crus-galli), ivy-leaved morning glory (Ipomoea hederacea), redroot pigweed (Amaranthus retroflexus) and velvetleaf (Abutilon theophrasti) were sown in standard soil in pots. After cultivation for one day under controlled conditions in a glasshouse (at 24/16° C., day/night; 14 hours light; 65% humidity), the plants were sprayed with an aqueous spray solution derived from the formulation of the technical active ingredient in acetone/water (50:50) solution containing 0.5% Tween 20 (polyoxyethylene sorbitan monolaurate, CAS RN 9005-64-5) to give a final dose of 15.625, 62.5 or 250 g/ha of test compound.
(§2) The test plants were then grown on under controlled conditions in a glasshouse (at 24/16° C., day/night; 14 hours light; 65% humidity) and watered twice daily. After 13 days the test was evaluated (100=total damage to plant; 0=no damage to plant). A dash (-) means no test result.

corn (Zea mays) [2] = assay: Test G Pre-Emergence Protocol; conditions: evaluated after 13 days
Procedure: as §1, §2

[3] = test system: giant foxtail (Setaria faberi); assay: Test G Pre-Emergence Protocol; conditions: evaluated after 13 days
Procedure: as §1, §2

[4] = test system: velvetleaf (Abutilon theophrasti); assay: Test G Pre-Emergence Protocol; conditions: evaluated after 13 days
Procedure: as §1, §2

[5] = test system: redroot pigweed (Amaranthus retroflexus); assay: Test G Pre-Emergence Protocol; conditions: evaluated after 13 days
Procedure: as §1, §2

[6] = test system: ivy-leaved morning glory (Ipomoea hederacea); assay: Test G Pre-Emergence Protocol; conditions: evaluated after 13 days
Procedure: as §1, §2

[7] = test system: barnyardgrass (Echinochloa crus-galli); assay: Test G Post-Emergence Protocol
Procedure: as §1, with “8 days” for “one day”
as §2

corn (Zea mays) [8] = assay: Test G Post-Emergence Protocol
Procedure: as §1, with “8 days” for “one day”
as §2

[9] = test system: giant foxtail (Setaria faberi); assay: Test G Post-Emergence Protocol
Procedure: as §1, with “8 days” for “one day”
as §2

[10] = test system: velvetleaf (Abutilon theophrasti); assay: Test G Post-Emergence Protocol
Procedure: as §1, with “8 days” for “one day”
as §2

[11] = test system: redroot pigweed (Amaranthus retroflexus); assay: Test G Post-Emergence Protocol
Procedure: as §1, with “8 days” for “one day”
as §2

[12] = test system: ivy-leaved morning glory (Ipomoea hederacea); assay: Test G Post-Emergence Protocol
Procedure: as §1, with “8 days” for “one day”
as §2

[13] = test system: pigweed (Amaranthus retroflexus); assay: Test A preemergence; conditions: Preemergence
Description: (§3) Seeds of plant species selected from barnyardgrass (Echinochloa crus-galli), Kochia (Kochia scoparia), ragweed (common ragweed, Ambrosia elatior), ryegrass, Italian (Italian ryegrass, Lolium multiflorum), crabgrass, large (Digitaria sanguinalis), giant foxtail (Setaria faberii), green foxtail (Setaria viridis), morningglory (Ipomoea spp.), pigweed (Amaranthus retroflexus), velvetleaf (Abutilon theophrasti), wheat (Triticum aestivum), and corn (Zea mays) were planted into a blend of loam soil and sand and treated preemergence with a directed soil spray using test chemicals formulated in anon-phytotoxic solvent mixture which included a surfactant.
(§4) At the same time, plants selected from these crop and weed species and also blackgrass (Alopecurus myosuroides), and Galium (catchweed bedstraw, Galium aparine) were planted in pots containing the same blend of loam soil and sand and treated with postemergence applications of test chemicals formulated in the same manner. Plants ranged in height from 2 to 10 cm and were in the one- to two-leaf stage for the postemergence treatment. Treated plants and untreated controls were maintained in a greenhouse for approximately 10 d, after which time all treated plants were compared to untreated controls and visually evaluated for injury. Plant response ratings, summarized in Table A, are based on a 0 to 100 scale where 0 is no effect and 100 is complete control. A dash (-) response means no test result.

Kochia (Kochia scoparia) [14] = assay: Test A preemergence; conditions: Preemergence
Description: as §3, §4

[15] = test system: barnyardgrass (Echinochloa crus-galli); assay: Test A preemergence; conditions: Preemergence
Description: as §3, §4

[16] = test system: ragweed (common ragweed, Ambrosia elatior); assay: Test A preemergence; conditions: Preemergence
Description: as §3, §4

[17] = test system: ryegrass, Italian (Italian ryegrass, Lolium multiflorum); assay: Test A preemergence; conditions: Preemergence
Description: as §3, §4

[18] = test system: giant foxtail (Setaria faberii); assay: Test A preemergence; conditions: Preemergence
Description: as §3, §4

[19] = test system: pigweed (Amaranthus retroflexus); assay: Test A postemergence
Description: as §3, §4

Kochia (Kochia scoparia) [20] = assay: Test A postemergence
Description: as §3, §4

[21] = test system: barnyardgrass (Echinochloa crus-galli); assay: Test A postemergence
Description: as §3, §4

[22] = test system: Galium (catchweed bedstraw, Galium aparine); assay: Test A postemergence
Description: as §3, §4

corn (Zea mays) [23] = assay: Test A postemergence
Description: as §3, §4

[24] = test system: ragweed (common ragweed, Ambrosia elatior); assay: Test A postemergence
Description: as §3, §4

[25] = test system: ryegrass, Italian (Italian ryegrass, Lolium multiflorum); assay: Test A postemergence
Description: as §3, §4

[26] = test system: blackgrass (Alopecurus myosuroides); assay: Test A postemergence
Description: as §3, §4

[27] = test system: wheat (Triticum aestivum); assay: Test A postemergence
Description: as §3, §4

[28] = test system: giant foxtail (Setaria faberii); assay: Test A postemergence
Description: as §3, §4

[29] = 62.5 g ai/ha, 100=total damage to plant, 0=no damage to plant
[30] = 15.625 g ai/ha, evaluated after 13 days (100=total damage to plant; 0=no damage to plant)
[31] = 62.5 g ai/ha, evaluated after 13 days
[32] = 250 g ai/ha, evaluated after 13 days
[33] = 125 g ai/ha, visual injury after approximately 10 d, 0 to 100 scale where 0 is no effect and 100 is complete control
[34] = 500 g ai/ha, visual injury approx. 10 d
[35] = 125 g ai/ha, postemergence, visual rating after approx. 10 d, 0 to 100 scale (0 no effect, 100 complete control)
[36] = Postemergence, 500 g ai/ha, 0 to 100 scale where 0 is no effect and 100 is complete control

Q: What does the source list for `COc1ccc([C@@H]2CN(C)C(=O)[C@H]2C(=O)Nc2ccccc2F)cc1[N+](=O)[O-]` (racemic) [Compound 1417]?
A: Barnyardgrass damage rating (100=total damage to plant; 0=no damage to plant) ([1]; 15.625 g ai/ha): 0; plant damage rating, Barnyardgrass [1, 29]: 60; Barnyardgrass damage rating (100=total damage to plant; 0=no damage to plant) ([1]; 250 g ai/ha): 80; Corn damage rating (100=total damage to plant; 0=no damage to plant) (corn (Zea mays) [2]; 15.625 g ai/ha): 0; plant damage rating, Corn (corn (Zea mays) [2]; [29]): 0; Corn damage rating (100=total damage to plant; 0=no damage to plant) (corn (Zea mays) [2]; 250 g ai/ha): 0; Foxtail, Giant damage rating (100=total damage to plant; 0=no damage to plant) ([3]; 15.625 g ai/ha): 0; plant damage rating, Foxtail, Giant [3, 29]: 80; Foxtail, Giant damage rating (100=total damage to plant; 0=no damage to plant) ([3]; 250 g ai/ha): 90; Velvetleaf damage rating (100=total damage to plant; 0=no damage to plant) ([4]; 15.625 g ai/ha): 0; plant damage rating, Velvetleaf [4, 29]: 0; Velvetleaf damage rating (100=total damage to plant; 0=no damage to plant) ([4]; 250 g ai/ha): 0; Pigweed, Redroot damage rating (100=total damage to plant; 0=no damage to plant) ([5]; 15.625 g ai/ha): 0; plant damage rating, Pigweed, Redroot [5, 29]: 0; Pigweed, Redroot damage rating (100=total damage to plant; 0=no damage to plant) ([5]; 250 g ai/ha): 30; Morning-glory, Ivy-leaved damage rating (100=total damage to plant; 0=no damage to plant) ([6]; 15.625 g ai/ha): 0; plant damage rating, Morningglory, Ivy-leaved [6, 29]: 0; Morningglory, Ivy-leaved damage rating (100=total damage to plant; 0=no damage to plant) ([6]; 250 g ai/ha): 30; Barnyardgrass damage rating [7, 30]: 10; Barnyardgrass damage rating (100=total damage to plant; 0=no damage to plant) [7, 31]: 40; damage to plant, Barnyardgrass (100=total damage to plant; 0=no damage to plant) [7, 32]: 60; Corn damage rating (corn (Zea mays) [8]; [30]): 0; Corn damage rating (100=total damage to plant; 0=no damage to plant) (corn (Zea mays) [8]; [31]): 10; damage to plant, Corn (100=total damage to plant; 0=no damage to plant) (corn (Zea mays) [8]; [32]): 20; Foxtail, Giant damage rating [9, 30]: 0; Foxtail, Giant damage rating (100=total damage to plant; 0=no damage to plant) [9, 31]: 70; damage to plant, Foxtail, Giant (100=total damage to plant; 0=no damage to plant) [9, 32]: 70; Velvetleaf damage rating [10, 30]: 10; Velvetleaf damage rating (100=total damage to plant; 0=no damage to plant) [10, 31]: 20; damage to plant, Velvetleaf (100=total damage to plant; 0=no damage to plant) [10, 32]: 20; Pigweed, Redroot damage rating [11, 30]: 20; Pigweed, Redroot damage rating (100=total damage to plant; 0=no damage to plant) [11, 31]: 10; damage to plant, Pigweed, Redroot (100=total damage to plant; 0=no damage to plant) [11, 32]: 30; Morningglory, Ivy-leaved damage rating [12, 30]: 0; Morningglory, Ivy-leaved damage rating (100=total damage to plant; 0=no damage to plant) [12, 31]: 20; damage to plant, Morningglory, Ivy-leaved (100=total damage to plant; 0=no damage to plant) [12, 32]: 30

Q: Which results are given for `CN1CC(c2cccc(C(F)(F)F)c2)C(C(=O)Nc2ccccc2)C1=O` (centres unmarked) [Compound 577]?
A: Plant response rating, Pigweed [13, 33]: 0; Pigweed plant response rating (0 to 100 scale, 0 is no effect, 100 is complete control) [13, 34]: 40; Plant response rating, Kochia (Kochia (Kochia scoparia) [14]; [33]): 50; Kochia plant response rating (0 to 100 scale, 0 is no effect, 100 is complete control) (Kochia (Kochia scoparia) [14]; [34]): 70; Plant response rating, Barnyardgrass [15, 33]: 90; Barnyardgrass plant response rating (0 to 100 scale, 0 is no effect, 100 is complete control) [15, 34]: 100; Plant response rating, Ragweed [16, 33]: 0; Ragweed plant response rating (0 to 100 scale, 0 is no effect, 100 is complete control) [16, 34]: 40; Plant response rating, Ryegrass, Italian [17, 33]: 40; Ryegrass, Italian plant response rating (0 to 100 scale, 0 is no effect, 100 is complete control) [17, 34]: 80; Plant response rating, Foxtail, Giant [18, 33]: 90; Foxtail, Giant plant response rating (0 to 100 scale, 0 is no effect, 100 is complete control) [18, 34]: 100; Plant response rating, Pigweed [19, 35]: 0; Plant response rating, Pigweed [19, 36]: 0; Plant response rating, Kochia (Kochia (Kochia scoparia) [20]; [35]): 0; Plant response rating, Kochia (Kochia (Kochia scoparia) [20]; [36]): 40; Plant response rating, Barnyardgrass [21, 35]: 90; Plant response rating, Barnyardgrass [21, 36]: 100; Plant response rating, Galium [22, 35]: 30; Plant response rating, Galium [22, 36]: 50; Plant response rating, Corn (corn (Zea mays) [23]; [35]): 60; Plant response rating, Corn (corn (Zea mays) [23]; [36]): 80; Plant response rating, Ragweed [24, 35]: 0; Plant response rating, Ragweed [24, 36]: 30; Plant response rating, Ryegrass, Italian [25, 35]: 30; Plant response rating, Ryegrass, Italian [25, 36]: 30; Plant response rating, Blackgrass [26, 35]: 70; Plant response rating, Blackgrass [26, 36]: 80; Plant response rating, Wheat [27, 35]: 40; Plant response rating, Wheat [27, 36]: 70; Plant response rating, Foxtail, Giant [28, 35]: 90; Plant response rating, Foxtail, Giant [28, 36]: 90
